Assay results from US8263754B2, “Amphiphiles for protein solubilization and stabilization” (Wisconsin Alumni Research Foundation, priority 2008, dated 2012).

Experiment: Critical micelle concentration (CMC) by dye solubilization (Orange OT or DPH)
Format: physicochemical
Details: determined by DPH (diphenylhexatriene) or Orange OT
Source text: Aqueous solubilization of Orange OT was used to determine critical micelle concentrations (CMC). […] Facile self-association of these amphiphiles under these conditions may be hindered by the hydrophilicity and/or steric bulk of the triglucoside and dimaltoside headgroups.
The Critical Micelle Concentrations (CMCs) of compounds of the invention can be determined by standard techniques known to those of skill in the art. For example, CMCs of the carbohydrate-based amphiphiles described herein can be determined by monitoring uptake of a dye (e.g., Orange OT or 1,6-diphenylhexatriene) with increasing detergent concentration, monitored by UV-visible or fluorescence spectroscopy.

SMILES	CMC	CMC (%)
CCCCCC[C@]1(CC(=O)NC(CO[C@H]2OC(CO)[C@H](O)C(O)[C@H]2O)CO[C@H]2OC(CO)[C@H](O)C(O)[C@H]2O)C2C[C@@H]3C[C@H](C2)C[C@@H]1C3 (stereo partly shown) [TPA 52]	1.1 mM	0.075%
CCCCC(CCCC)(CC(=O)NC(CO[C@@H]1O[C@H](CO)[C@@H](O)[C@H](O)[C@H]1O)CO[C@@H]1O[C@H](CO)[C@@H](O)[C@H](O)[C@H]1O)c1ccc(C(C)C)cc1 [TPA 32]	1.3 mM	0.091%
CCCCC(CCCC)(CC(=O)NC(COC1OC(CO)C(O)C(O)C1O)COC1OC(CO)C(O)C(O)C1O)C1CCCC1 (stereo not shown) [TPA 57]	2.25 mM	0.15%
CC(C)(C)CC(C)(C)c1ccc(OCC(=O)NCCC[N+](C)(C)[O-])cc1 [Triton-N-oxide]	1.1 mM	0.04%
O=C(CC1(C2CCCCC2)CCCCC1)NC(CO[C@@H]1O[C@H](CO)[C@@H](O)[C@H](O)[C@H]1O)CO[C@@H]1O[C@H](CO)[C@@H](O)[C@H](O)[C@H]1O [TPA 50]	19.2 mM	1.19%
O=C(NCCO[C@H]1OC(CO)[C@H](O)C(O)[C@H]1O)C12CC3CC(CC(C3)C1)C2 (stereo partly shown) [TPA 41]	180 mM	6.9%
O=C(NCCOC1OC(CO)C(OC2OC(CO)C(O)C(O)C2O)C(O)C1O)C(c1ccccc1)c1ccccc1 (stereo not shown) [DPA 68]	85.3 mM	4.95%
CCCCCCCCCCCCCCC(=O)NC(CO[C@@H]1O[C@H](CO)[C@@H](O)[C@H](O)[C@H]1O)CO[C@@H]1O[C@H](CO)[C@@H](O)[C@H](O)[C@H]1O [C14-MPA2]	0.17 mM	0.011%
CCCCC(CCCC)(CC(=O)NC(CO[C@@H]1O[C@H](CO)[C@@H](O)[C@H](O)[C@H]1O)CO[C@@H]1O[C@H](CO)[C@@H](O)[C@H](O)[C@H]1O)c1ccc(C(C)(C)C)cc1 [TPA 33]	0.42 mM	0.03%
CCCC[C@]1(CC(=O)NCCO[C@H]2OC(CO)[C@H](O[C@@H]3OC(CO)[C@H](O)C(O)[C@H]3O)C(O)[C@H]2O)C2C[C@@H]3C[C@H](C2)C[C@@H]1C3 (stereo partly shown) [TPA 46]	2.6 mM	0.16%
CC(CC(=O)NC(CO[C@@H]1O[C@H](CO)[C@@H](O)[C@H](O)[C@H]1O)CO[C@@H]1O[C@H](CO)[C@@H](O)[C@H](O)[C@H]1O)(C1CCCCC1)C1CCCCC1 [TPA 47]	4.7 mM	0.3%
CCCCCCCCCCC(=O)NC(CO[C@@H]1O[C@H](CO)[C@@H](O)[C@H](O)[C@H]1O)CO[C@@H]1O[C@H](CO)[C@@H](O)[C@H](O)[C@H]1O [C10-MPA 2]	8.1 mM	0.47%
CCCCC(CCCC)(CC(=O)NC(COC1OC(CO)C(O)C(O)C1O)COC1OC(CO)C(O)C(O)C1O)c1ccc(C)cc1 (stereo not shown) [TPA 31]	2.4 mM	0.16%
CC12CC3CC(C)(C1)CC(CC(=O)NCCO[C@H]1OC(CO)[C@H](O[C@@H]4OC(CO)[C@H](O)C(O)[C@H]4O)C(O)[C@H]1O)(C3)C2 (stereo partly shown) [TPA 44]	19.1 mM	1.1%
CCCCC(CC(=O)NC(CO[C@@H]1O[C@H](CO)[C@@H](O)[C@H](O)[C@H]1O)CO[C@@H]1O[C@H](CO)[C@@H](O)[C@H](O)[C@H]1O)(C1CCCCC1)C1CCCCC1 [TPA 49]	0.64 mM	0.04%
CCCCCC(CCCCC)(CC(=O)NC(CO[C@@H]1O[C@H](CO)[C@@H](O)[C@H](O)[C@H]1O)CO[C@@H]1O[C@H](CO)[C@@H](O)[C@H](O)[C@H]1O)c1ccccc1 [TPA 35]	1.2 mM	0.083%
CCCC[C@]1(CC(=O)NC(CO[C@H]2OC(CO)[C@H](O)C(O)[C@H]2O)CO[C@H]2OC(CO)[C@H](O)C(O)[C@H]2O)C2C[C@@H]3C[C@H](C2)C[C@@H]1C3 (stereo partly shown) [TPA 45]	6.4 mM	0.41%
CCCCCC(CC(=O)NC(CO[C@@H]1O[C@H](CO)[C@@H](O)[C@H](O)[C@H]1O)CO[C@@H]1O[C@H](CO)[C@@H](O)[C@H](O)[C@H]1O)(C1CCCCC1)C1CCCCC1 [TPA 73]	0.21 mM	0.014%
CCCCCCC(CCCCCC)(CC(=O)NC(CO[C@@H]1O[C@H](CO)[C@@H](O)[C@H](O)[C@H]1O)CO[C@@H]1O[C@H](CO)[C@@H](O)[C@H](O)[C@H]1O)c1ccccc1 [TPA 36]	0.56 mM	0.04%
O=C(CC1(C2CCCCC2)CCCCCCC1)NC(CO[C@@H]1O[C@H](CO)[C@@H](O)[C@H](O)[C@H]1O)CO[C@@H]1O[C@H](CO)[C@@H](O)[C@H](O)[C@H]1O [TPA 54]	4.5 mM	0.29%
CCCCC(CCCC)(CC(=O)NC(COC1OC(CO)C(O)C(O)C1O)COC1OC(CO)C(O)C(O)C1O)c1ccc(-c2ccccc2)cc1 (stereo not shown) [TPA 34]	0.14 mM	0.01%

Continued, values first:

CMC	CMC (%)	SMILES
3.7 mM	0.32%	CCCCC(CCCC)(CC(=O)NC(CO[C@@H]1O[C@H](CO)[C@@H](O)[C@H](O)[C@H]1O)(CO[C@@H]1O[C@H](CO)[C@@H](O)[C@H](O)[C@H]1O)CO[C@@H]1O[C@H](CO)[C@@H](O)[C@H](O)[C@H]1O)C1CCCCC1 [TPA22]
3.7 mM	0.34%	CCCCC(CCCC)(CC(=O)NC(CO[C@@H]1O[C@H](CO)[C@@H](O)[C@H](O)[C@H]1O)(CO[C@@H]1O[C@H](CO)[C@@H](O)[C@H](O)[C@H]1O)CO[C@@H]1O[C@H](CO)[C@@H](O)[C@H](O)[C@H]1O)c1ccc(-c2ccccc2)cc1 [TPA13]
3.4 mM	0.31%	CCCCC(CCCC)(CC(=O)NC(CO[C@@H]1O[C@H](CO)[C@@H](O)[C@H](O)[C@H]1O)(CO[C@@H]1O[C@H](CO)[C@@H](O)[C@H](O)[C@H]1O)CO[C@@H]1O[C@H](CO)[C@@H](O)[C@H](O)[C@H]1O)c1ccc(C(C)(C)C)cc1 [TPA14]
1.4 mM	0.13%	CCCCCCC(CCCCCC)(CC(=O)NC(CO[C@@H]1O[C@H](CO)[C@@H](O)[C@H](O)[C@H]1O)(CO[C@@H]1O[C@H](CO)[C@@H](O)[C@H](O)[C@H]1O)CO[C@@H]1O[C@H](CO)[C@@H](O)[C@H](O)[C@H]1O)c1ccccc1 [TPA17]
0.3 mM	0.03%	CCCCCCC(CCCCCC)(CC(=O)NC(CO[C@@H]1O[C@H](CO)[C@@H](O[C@H]2O[C@H](CO)[C@@H](O)[C@H](O)[C@H]2O)[C@H](O)[C@H]1O)CO[C@@H]1O[C@H](CO)[C@@H](O[C@H]2O[C@H](CO)[C@@H](O)[C@H](O)[C@H]2O)[C@H](O)[C@H]1O)c1ccccc1 [TPA18]
1.7 mM	0.18%	CCCCC(CCCC)(CC(=O)NC(COC1OC(CO)C(OC2OC(CO)C(O)C(O)C2O)C(O)C1O)COC1OC(CO)C(OC2OC(CO)C(O)C(O)C2O)C(O)C1O)c1ccc(-c2ccccc2)cc1 (stereo not shown) [TPA15]
1.9 mM	0.19%	CCCCC(CCCC)(CC(=O)NC(CO[C@@H]1O[C@H](CO)[C@@H](O[C@H]2O[C@H](CO)[C@@H](O)[C@H](O)[C@H]2O)[C@H](O)[C@H]1O)CO[C@@H]1O[C@H](CO)[C@@H](O[C@H]2O[C@H](CO)[C@@H](O)[C@H](O)[C@H]2O)[C@H](O)[C@H]1O)C1CCCCC1 [TPA24]
4.1 mM	0.26%	CCCCC(CCCC)(CC(=O)NC(CO[C@@H]1O[C@H](CO)[C@@H](O)[C@H](O)[C@H]1O)CO[C@@H]1O[C@H](CO)[C@@H](O)[C@H](O)[C@H]1O)CC(C)C [TPA25]
